Measured values reported in US10513547B2, “Peptides and combination of peptides and scaffolds thereof for use in immunotherapy against colorectal carcinoma (CRC) and other cancers” (Immatics Biotechnologies GmbH, priority 2015, dated 2019).

Key:
CD8+ T-cells = experiment: In vitro T-cell priming assay with aAPCs loaded with peptide/MHC and anti-CD28, pMHC multimer readout; type: cell-based, human; conditions: HLA-A*02 restricted peptides; positive wells among evaluable
Description: In order to obtain information regarding the immunogenicity of the TUMAPs of the present invention, the inventors performed investigations using an in vitro T-cell priming assay based on repeated stimulations of CD8+ T-cells with artificial antigen presenting cells (aAPCs) loaded with peptide/MHC complexes and anti-CD28 antibody.
In order to perform in vitro stimulations by artificial antigen presenting cells loaded with peptide-MHC complex (pMHC) and anti-CD28 antibody, the inventors first isolated CD8+ T-cells from fresh HLA-A*02 leukapheresis products via positive selection using CD8 microbeads (Miltenyi Biotec, Bergisch-Gladbach, Germany) of healthy donors obtained from the University clinics Mannheim, Germany, after informed consent.
PBMCs and isolated CD8+ lymphocytes were incubated in T-cell medium (TCM) until use consisting of RPMI-Glutamax (Invitrogen, Karlsruhe, Germany) supplemented with 10% heat inactivated human AB serum (PAN-Biotech, Aidenbach, Germany), 100 U/ml Penicillin/100 μg/ml Streptomycin (Cambrex, Cologne, Germany), 1 mM sodium pyruvate (CC Pro, Oberdorla, Germany), 20 μg/ml Gentamycin (Cambrex). 2.5 ng/ml IL-7 (PromoCell, Heidelberg, Germany) and 10 U/ml IL-2 (Novartis Pharma, Nürnberg, Germany) were also added to the TCM at this step.
Generation of pMHC/anti-CD28 coated beads, T-cell stimulations and readout was performed in a highly defined in vitro system using four different pMHC molecules per stimulation condition and 8 different pMHC molecules per readout condition.
The purified co-stimulatory mouse IgG2a anti human CD28 Ab 9.3 (Jung et al., 1987) was chemically biotinylated using Sulfo-N-hydroxysuccinimidobiotin as recommended by the manufacturer (Perbio, Bonn, Germany). Beads used were 5.6 μm diameter streptavidin coated polystyrene particles (Bangs Laboratories, Illinois, USA).
800.000 beads/200 μl were coated in 96-well plates in the presence of 4×12.5 ng different biotin-pMHC, washed and 600 ng biotin anti-CD28 were added subsequently in a volume of 200 μl. Stimulations were initiated in 96-well plates by co-incubating 1×10^6 CD8+ T-cells with 2×10^5 washed coated beads in 200 μl TCM supplemented with 5 ng/ml IL-12 (PromoCell) for 3 days at 37° C. Half of the medium was then exchanged by fresh TCM supplemented with 80 U/ml IL-2 and incubating was continued for 4 days at 37° C. This stimulation cycle was performed for a total of three times. For the pMHC multimer readout using 8 different pMHC molecules per condition, a two-dimensional combinatorial coding approach was used as previously described (Andersen et al., 2012) with minor modifications encompassing coupling to 5 different fluorochromes. Finally, multimeric analyses were performed by staining the cells with Live/dead near IR dye (Invitrogen, Karlsruhe, Germany), CD8-FITC antibody clone SK1 (BD, Heidelberg, Germany) and fluorescent pMHC multimers. For analysis, a BD LSRII SORP cytometer equipped with appropriate lasers and filters was used. Peptide specific cells were calculated as percentage of total CD8+ cells. Evaluation of multimeric analysis was done using the FlowJo software (Tree Star, Oreg., USA). In vitro priming of specific multimer+ CD8+ lymphocytes was detected by comparing to negative control stimulations.

HLA-A*02:01 = HLA-A*02:01 (Homo sapiens, UniProt P04439, D140Y/D185E/D98H/E176V/E277Q/G131W/G231S/I119V/I121R/I166T/I218V/L300P/L318F/N151K/N90K/P208A/P217A/Q86G/Q94H/R138H/R169H/T345S); experiment: MHC binding assay (UV-ligand exchange, beta2m ELISA, peptide exchange yield); conditions: binding to HLA-A*02:01
How it was run: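 Peptide–HLA-A*02:01 complexes formed by UV-ligand exchange, in which a UV-cleavable peptide is replaced by the test peptide. Exchange products, diluted 100-fold, were captured on streptavidin plates and detected with HRP anti-β2m ELISA at 450 nm. Yield was quantified against refolded monomer standards at 15-500 ng/ml.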

| Substance | Wells positive [%] (CD8+ T-cells) | Peptide exchange (MHC class I binding score, peptide exchange yield) (HLA-A*02:01) |
| --- | --- | --- |
| 17 (ALAAARVEL; listed as Homo sapiens) [compound 17] | “++” (20%-49% = ++) | “+++” (≥50 = +++) |
| 18 (FLSSLKGGLL; listed as Homo sapiens) [compound 18] | “+” (<20% = +) | “+++” (≥50 = +++) |
| 19 (RLYTKLLNEA; listed as Homo sapiens) [compound 19] | “+++” (50%-69% = +++) | “+++” (≥50 = +++) |
| 21 (VLIDHRWVL; listed as Homo sapiens) [compound 21] | “+” (<20% = +) | “+++” (≥50 = +++) |
| 22 (GLIDEVMVL; listed as Homo sapiens) [compound 22] | “++” (20%-49% = ++) | “+++” (≥50 = +++) |
| 31 (LLYGKYVSV; listed as Homo sapiens) [compound 31] | “++” (20%-49% = ++) | “+++” (≥50 = +++) |
| 32 (KLNTETFGV; listed as Homo sapiens) [compound 32] | “++” (20%-49% = ++) | “++” (≥20% = ++) |
| 37 (GLFAGLGGAGA; listed as Homo sapiens) [compound 37] | “+” (<20% = +) | “+++” (≥50 = +++) |
| 38 (SLAPTPVSA; listed as Homo sapiens) [compound 38] | “+” (<20% = +) | “++” (≥20% = ++) |
| 42 (SILDDSFKL; listed as Homo sapiens) [compound 42] | “+” (<20% = +) | “++++” (≥75% = ++++) |
| 47 (KLYERCEVV; listed as Homo sapiens) [compound 47] | “+” (<20% = +) | “++” (≥20% = ++) |
| 59 (LLTDNVVKL; listed as Homo sapiens) [compound 59] | “+” (<20% = +) | “+++” (≥50 = +++) |
| 64 (KTLGKLWRL; listed as Homo sapiens) [compound 64] | “++++” (> = 70% = ++++) | “++” (≥20% = ++) |
| 123 (KTLERSYLL; listed as Homo sapiens) [compound 123] | “+” (<20% = +) | “++” (≥20% = ++) |
| 124 (RVLPPSALQSV; listed as Homo sapiens) [compound 124] | “+” (<20% = +) | “+++” (≥50 = +++) |
| 127 (RLAELTVDEFLA; listed as Homo sapiens) [compound 127] | “+” (<20% = +) | “+++” (≥50 = +++) |
| 132 (ALLNAILHSA; listed as Homo sapiens) [compound 132] | “+” (<20% = +) | “+++” (≥50 = +++) |
| 133 (RTFEKIEEV; listed as Homo sapiens) [compound 133] | “+” (<20% = +) | “++” (≥20% = ++) |
| 136 (KLFDIFSQQV; listed as Homo sapiens) [compound 136] | “++” (20%-49% = ++) | “+++” (≥50 = +++) |
| 141 (AVIEHLERL; listed as Homo sapiens) [compound 141] | “+” (<20% = +) | “++++” (≥75% = ++++) |
| 142 (SLVQRVETI; listed as Homo sapiens) [compound 142] | “+” (<20% = +) | “+++” (≥50 = +++) |
| 150 (RLADLEALKV; listed as Homo sapiens) [compound 150] | “++″ (20%-49% = ++) | “+++” (≥50 = +++) |
